The record followed here is PubChem BioAssay AID1199 (EPA DSSTox, 2008).

The subject of this data set is mouse carcinogenicity bioassay, TD50 from CPDB. Description: DSSTox (CPDBAS) Carcinogenic Potency Database Summary Mouse Bioassay Results. A digest of the protocol: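 Chronic long-term mouse cancer bioassays from literature and NCI/NTP, compiled per sex. TD50 is the standardized carcinogenic potency, using the most positive experiment per sex-species; target sites follow author opinion.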

[1] abbreviates: TD50_Mouse_Note: no positive results, TargetSites_Mouse_Female: no positive results.
The mark [2] stands for this setting: TD50_Mouse_Note: TD50 is harmonic mean of more than one positive test, TargetSites_Mouse_Female: liver.
The mark [3] stands for this setting: TargetSites_Mouse_Female: no positive results.
The mark [4] stands for this setting: TD50_Mouse_Note: TD50 is harmonic mean of more than one positive test, TargetSites_Mouse_Female: liver, thyroid gland.
Setting [5] is: TD50_Mouse_Note: no positive results.
Where [6] appears, read: TD50_Mouse_Note: TD50 is harmonic mean of more than one positive test, TargetSites_Mouse_Female: stomach.

Activity calls are given as the source filed them.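 How the source made its calls: active means a tumour-causing dose and a tumour site recorded for mice in at least one sex group; inconclusive means only government mouse studies exist and were judged inadequate; inactive means mouse studies exist but none gave tumours.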

For `CC(=O)OC/C=C(\C)CCC=C(C)C`, the outcome under setting [1] was “inactive; no positive results”. Same read-out and setting: in the case of `F` it was “inactive; no positive results”. As for `O=Cc1ccco1`, the Potency under setting [2] was 2.05 mmol/kg/day. For the molecule `CCOc1ccccc1C(N)=O`, the Potency under setting [3] is 3.11 mmol/kg/day. As to `c1ccncc1`, the Potency under setting [2] is 0.308 mmol/kg/day. For the molecule `O=C1Nc2ccc(Cl)cc2C(c2ccccc2)=NC1O` (configuration not stated), the Potency under setting [4] is 0.125 mmol/kg/day. With `COc1ccc(N)c(OC)c1`, under setting [1], the outcome is “inactive; no positive results”. Regarding `CCCCC1C(=O)N(c2ccccc2)N(c2ccccc2)C1=O`, the Potency under setting [3] was 1.14 mmol/kg/day. Consider `CCCNN`, for which the Potency (TD50_Mouse_Note: TD50 is harmonic mean of more than one positive test, TargetSites_Mouse_Female: lung) is 0.411 mmol/kg/day. As to `CCCCCCCCCCCCCCCC(=O)OC/C=C(C)/C=C/C=C(C)/C=C/C1=C(C)CCCC1(C)C`, the outcome under setting [5] is “inactive; no positive results”. Turning to `C1CCOC1`, for the setting “TargetSites_Mouse_Female: liver”, the Potency was 18 mmol/kg/day. On to `Cc1c(N)nc(C)c2c1[nH]c1ccccc12`, for which the Potency under setting [2] is 0.15 mmol/kg/day. Turning to `O=S(=O)([O-])[O-].[O]=[V+2]`, under setting [1], the outcome is “inactive; no positive results”. Still for that read-out and setting: in the case of `CN[C@H]1CC[C@@H](c2ccc(Cl)c(Cl)c2)c2ccccc21` it was “inactive; no positive results”; in that of `FC(F)OC(Cl)C(F)(F)F` (configuration not stated), “inactive; no positive results”.

With `O=C(Nc1nc(-c2ccc([N+](=O)[O-])o2)cs1)C(F)(F)F`, the Potency (TargetSites_Mouse_Female: stomach) is 0.0325 mmol/kg/day.

As to `O=C(O)c1ccc([N+](=O)[O-])cc1`, the outcome under setting [1] is “inactive; no positive results”. In the case of `Cc1cnc2ccc3c(nc(N)n3C)c2n1`, under “TD50_Mouse_Note: TD50 is harmonic mean of more than one positive test, TargetSites_Mouse_Female: liver, lung”, the Potency was 0.114 mmol/kg/day. With `CCS(=O)(=O)c1ccc(S(N)(=O)=O)c2ccccc12`, for the setting “TD50_Mouse_Note: TD50 is harmonic mean of more than one positive test, TargetSites_Mouse_Female: urinary bladder”, the Potency was 0.0705 mmol/kg/day. For the molecule `C[C@@H]1CCC[C@H](C)N1CCCC(O)(c1ccccc1)c1ccccn1` (some centres not stated), under setting [1], the outcome was “inactive; no positive results”.

In the case of `CCO`, the outcome under setting [1] is “inactive; no positive results”. On the same count and under the same terms, in the case of `O=C(NCC1CCCCN1)c1cc(OCC(F)(F)F)ccc1OCC(F)(F)F` (configuration not stated) it was “inactive; no positive results”. Still for that read-out and setting: in the case of `CC(Cl)Cl` it was “inactive; no positive results”.

In the case of `C[C@H](CCC(=O)O)[C@H]1CC[C@H]2[C@@H]3[C@H](O)C[C@@H]4C[C@H](O)CC[C@]4(C)[C@H]3CC[C@]12C`, the result (TargetSites_Mouse_BothSexes: no positive results) was inactive. As to `FC(Cl)(Cl)Cl`, under setting [1], the outcome is “inactive; no positive results”. As for `CC(=O)Nc1ccc(CC(=O)O)cc1`, the outcome under setting [1] is “inactive; no positive results”. On to `C=C(C)[C@H]1Cc2c(ccc3c2O[C@@H]2COc4cc(OC)c(OC)cc4[C@@H]2C3=O)O1`, for which the outcome under setting [1] is “inactive; no positive results”. Same read-out and setting: in the case of `O=C(O)c1ccncc1` it was “inactive; no positive results”. For `C=C(Cl)Cl`, the Potency (TD50_Mouse_Note: TD50 is harmonic mean of more than one positive test, TargetSites_Mouse_Female: lung, mammary gland, vascular system) is 0.357 mmol/kg/day. On to `c1ccc2sc(SSc3nc4ccccc4s3)nc2c1`, for which the outcome under setting [1] was “inactive; no positive results”.

As for `CN(C)C(=S)[S-].CN(C)C(=S)[S-].[Cu+2]`, the outcome under setting [1] is “inactive; no positive results”. Take `C=C(C)C(=O)Nc1ccc(Cl)c(Cl)c1`: the outcome under setting [1] was “inactive; no positive results”.

Consider `C=C1C[C@]23C[C@@]1(O)CC[C@H]2[C@@]12C=C[C@H](O)[C@@](C)(C(=O)O1)[C@H]2[C@@H]3C(=O)O`, for which the outcome under setting [1] was “inactive; no positive results”. On to `c1ccc2c(c1)[nH]c1ccccc12`, for which, where the note is “TD50_Mouse_Note: TD50 is harmonic mean of more than one positive test, TargetSites_Mouse_Female: liver, stomach”, the Potency is 0.981 mmol/kg/day. For the molecule `CC(=O)N[C@@H](CC(C)C)C(=O)N[C@@H](CC(C)C)C(=O)N[C@H](C=O)CCCN=C(N)N`, the Potency under setting [3] was 0.131 mmol/kg/day. Regarding `C=CC(=C)C`, the Potency (TD50_Mouse_Note: TD50 is harmonic mean of more than one positive test, TargetSites_Mouse_Female: harderian gland, pituitary gland, vascular system) is 4.02 mmol/kg/day. Regarding `NNc1ccc(C(=O)O)cc1`, under “TD50_Mouse_Note: TD50 is harmonic mean of more than one positive test, TargetSites_Mouse_Female: vascular system”, the Potency was 2.97 mmol/kg/day. Moreover, the outcome under setting [1] was inactive. Consider `Nc1ccc2ccccc2c1`, for which the Potency under setting [2] was 0.275 mmol/kg/day. In the case of `OCCO`, under setting [1], the outcome was “inactive; no positive results”.

With `CCOC(=O)[C@H](CCc1ccccc1)N[C@@H](C)C(=O)N1Cc2ccccc2C[C@H]1C(=O)O`, under setting [1], the outcome is “inactive; no positive results”. Still for that read-out and setting: in the case of `O=S1OCCO1` it was “inactive”. As to `CCCl`, the Potency (TargetSites_Mouse_Female: uterus) is 28.1 mmol/kg/day. With `C=COC(C)=O`, under “TargetSites_Mouse_Female: esophagus, oral cavity, stomach, uterus”, the Potency was 45.5 mmol/kg/day. Turning to `O=Nc1ccc(NO)cc1`, under setting [1], the outcome is “inactive; no positive results”. Same read-out and setting: in the case of `O=C(O)COc1cc(Cl)c(Cl)cc1Cl` it was “inactive; no positive results”.

In the case of `OB(O)O`, the outcome under setting [1] was “inactive; no positive results”. The same measure, in the same setting: in the case of `Clc1ccccc1` it was “inactive; no positive results”. As for `c1ccc2c(c1)cc1ccc3cccc4ccc2c1c34`, the Potency (TD50_Mouse_Note: TD50 is harmonic mean of more than one positive test, TargetSites_Mouse_Female: esophagus, oral cavity, stomach) was 0.0138 mmol/kg/day. Turning to `C=CCc1ccc2c(c1)OCO2`, the Potency (TD50_Mouse_Note: TD50 is harmonic mean of more than one positive test, harmonic mean of TD50 includes a value for upper 99% confidence li, TargetSites_Mouse_Female: liver) is 0.316 mmol/kg/day. For `CCN(CC)C(=S)S[Se](SC(=S)N(CC)CC)(SC(=S)N(CC)CC)SC(=S)N(CC)CC`, under setting [3], the Potency was 0.00222 mmol/kg/day.

`CN(C)C=O`: under setting [1], the outcome is “inactive; no positive results”. Take `ClCc1ccccc1`: under setting [6], the Potency was 0.486 mmol/kg/day. Take `O=C1C2(Cl)C3(Cl)C4(Cl)C(Cl)(Cl)C5(Cl)C3(Cl)C1(Cl)C5(Cl)C24Cl` (configuration not stated): the Potency under setting [2] was 0.002 mmol/kg/day. As for `O=C(O)CCCc1ccc(N(CCCl)CCCl)cc1`, the Potency (TD50_Mouse_Note: positive test results only by intraperitoneal or intravenous injection, TD50 is harmonic mean of more than one positive, TargetSites_Mouse_Female: lung) was 0.000437 mmol/kg/day.

`O=C1CCO1`: under setting [6], the Potency is 0.0172 mmol/kg/day.

With `CC(/C=C/C=C(\C)C(=O)O[C@@H]1O[C@H](CO[C@@H]2O[C@H](CO)[C@@H](O)[C@H](O)[C@H]2O)[C@@H](O)[C@H](O)[C@H]1O)=C\C=C\C=C(C)\C=C\C=C(/C)C(=O)O[C@@H]1O[C@H](CO[C@@H]2O[C@H](CO)[C@@H](O)[C@H](O)[C@H]2O)[C@@H](O)[C@H](O)[C@H]1O`, under setting [1], the outcome was “inactive; no positive results”. With `C=C1CC[C@H](O)C/C1=C/C=C1\CCC[C@]2(C)[C@@H]([C@H](C)/C=C/[C@H](C)C(C)C)CC[C@@H]12`, under setting [5], the outcome was inactive. The same measure, in the same setting: in the case of `ClC(Cl)=C(Cl)c1c(Cl)c(Cl)c(Cl)c(Cl)c1Cl` it was “inactive; no positive results”. Turning to `CC(O)COC(C)(C)C` (configuration not stated), under setting [2], the Potency is 14.1 mmol/kg/day.

Regarding `CN(C)CCOC(C)(c1ccccc1)c1ccccn1` (configuration not stated), under setting [4], the Potency was 0.538 mmol/kg/day. On to `Cn1c(=O)c2[nH]cnc2n(C)c1=O`, for which the outcome under setting [1] was “inactive; no positive results”.

`O=S(=O)(O)NC1CCCCC1`: where the note is “TD50_Mouse_Note: TD50 is harmonic mean of more than one positive test, TargetSites_Mouse_Female: all tumor bearing animals”, the Potency was 3.31 mmol/kg/day. As for `COc1ccc2nc(S(=O)Cc3ncc(C)c(OC)c3C)[nH]c2c1` (configuration not stated), under setting [1], the outcome was “inactive; no positive results”. The same measure, in the same setting: in the case of `CN(C)[C@@H]1C(=O)C(C(N)=O)=C(O)[C@@]2(O)C(=O)C3=C(O)c4c(O)cccc4[C@@](C)(O)[C@H]3C[C@@H]12` it was “inactive; no positive results”.

As to `Cn1cc(C(=O)O)c(=O)c2ccc(/C=C/c3ccc([N+](=O)[O-])o3)nc21`, where the note is “TargetSites_Mouse_BothSexes: hematopoietic system, lung, stomach”, the Potency is 0.0212 mmol/kg/day.

Take `CCCNC(=O)NS(=O)(=O)c1ccc(Cl)cc1`: the outcome under setting [1] was “inactive; no positive results”. In the case of `CC(C)N(C(=O)SC/C(Cl)=C/Cl)C(C)C`, where the note is “TD50_Mouse_Note: TD50 is harmonic mean of more than one positive test, TargetSites_Mouse_Female: no positive results”, the Potency was 0.0988 mmol/kg/day. With `S=C1NCCN1`, where the note is “TD50_Mouse_Note: TD50 is harmonic mean of more than one positive test, TargetSites_Mouse_Female: liver, pituitary gland, thyroid gland”, the Potency is 0.23 mmol/kg/day. Turning to `CCNN`, the Potency (TD50_Mouse_Note: TD50 is harmonic mean of more than one positive test, TargetSites_Mouse_Female: lung, vascular system) was 0.0679 mmol/kg/day. Take `CC(C)(C)NC(=O)[C@H]1CC[C@H]2[C@@H]3CC[C@H]4NC(=O)C=C[C@]4(C)[C@H]3CC[C@]12C`: the Potency was 0.875 mmol/kg/day. Consider `CN[C@@H](C)[C@H](O)c1ccccc1`, for which the outcome under setting [1] is “inactive; no positive results”. Still for that read-out and setting: in the case of `O=[N+]([O-])c1cc([As](=O)(O)O)ccc1O` it was “inactive; no positive results”; in that of `COC(=O)C1=C(C)NC(C)=C(C(=O)OCCc2ccc(N3CCN(C(c4ccccc4)c4ccccc4)CC3)cc2)C1c1cccc([N+](=O)[O-])c1` (configuration not stated), “inactive; no positive results”. Still for that read-out and setting: in the case of `COC(N)=O` it was “inactive; no positive results”; in that of `O=S(=O)(O)c1ccc(N=Nc2c(O)ccc3cc(S(=O)(=O)O)ccc23)cc1`, “inactive; no positive results”; in that of `Oc1ccc(OCc2ccccc2)cc1`, “inactive; no positive results”.

For the molecule `CC(C)C[C@H]1C(=O)N2CCC[C@H]2[C@]2(O)O[C@](NC(=O)[C@@H]3C=C4c5cccc6[nH]c(Br)c(c56)C[C@H]4N(C)C3)(C(C)C)C(=O)N12`, under setting [1], the outcome is “inactive; no positive results”. With `C1COCCO1`, under “TD50_Mouse_Note: TD50 is harmonic mean of more than one positive test, greater than ten-fold variation among TD50 values for positive res, TargetSites_Mouse_Female: liver”, the Potency is 2.32 mmol/kg/day.

With `O=C(O)c1[nH]n(-c2ccc(S(=O)(=O)O)cc2)c(=O)c1N=Nc1ccc(S(=O)(=O)O)cc1`, the outcome under setting [1] is “inactive; no positive results”.

`N[C@@H](CCC(=O)NNc1ccc(C(=O)O)cc1)C(=O)O`: the Potency under setting [3] was 0.985 mmol/kg/day. As for `CN(C)C(=O)Nc1ccc(Cl)c(Cl)c1`, the outcome under setting [1] is “inactive; no positive results”.
